Measurements from patent publication US4439426A, “Semisynthetic macrolidic antibiotics, intermediate compounds for their preparation and related pharmaceutical compositions containing them” (priority 1981, dated 1984).
Converted amounts (≈) assume the structure as drawn.

Key:
[1] = system: Proteus vulgaris ATCC 6380 LRP 13; test: Bacteriostatic power in solid medium (MIC); assay type: cell-based; settings: Proteus vulgaris, ATCC6380, read-out: Minimum inhibiting concentration
In short: (§1)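 Values are minimum inhibiting concentrations, taken as the measure of bacteriostatic power against both aerobic and anaerobic strains of either Gram type.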

[2] = system: Staphylococcus aureus ATCC 14154 LRP 78; test: Bacteriostatic power in solid medium (MIC); assay type: cell-based; settings: Staphylococcus aureus, ATCC14154, read-out: Minimum inhibiting concentration
In short: as §1

[3] = system: Streptococcus pneumoniae ATCC 6303 LRP 35; test: Bacteriostatic power in solid medium (MIC); assay type: cell-based; settings: Streptococcus pneumoniae, ATCC6303, read-out: Minimum inhibiting concentration
In short: as §1

[4] = system: Streptococcus faecalis LRP 7; test: Bacteriostatic power in solid medium (MIC); assay type: cell-based; settings: Enterococcus faecalis, LRP7, read-out: Minimum inhibiting concentration
In short: as §1

[5] = system: Micrococcus luteus ATCC 9341 LRP 6; test: Bacteriostatic power in solid medium (MIC); assay type: cell-based; settings: Micrococcus luteus, ATCC9341, read-out: Minimum inhibiting concentration
In short: as §1

[6] = system: Acholeplasma laidlawii ATCC 23206 LRP 204; test: Bacteriostatic power in solid medium (MIC); assay type: cell-based; settings: Acholeplasma laidlawii, ATCC23206; solid medium; read-out: Minimum inhibiting concentration
In short: as §1

[7] = system: Klelsiella pneumoniae LRP 54; test: Bacteriostatic power in solid medium (MIC); assay type: cell-based; settings: read-out: Minimum inhibiting concentration
In short: as §1

[8] = system: Pseudomonas aeruginosa LRP 9; test: Bacteriostatic power in solid medium (MIC); assay type: cell-based; settings: Pseudomonas aeruginosa, LRP9, read-out: Minimum inhibiting concentration
In short: as §1

[9] = system: Fusobacteriumnecrophroum ATCC 27852 LRP 210; test: Bacteriostatic power in solid medium (MIC); assay type: cell-based; settings: read-out: Minimum inhibiting concentration
In short: as §1

[10] = system: Streptococcus pneumoniae ATCC 6303 LRP 52; test: Bacteriostatic power in solid medium (MIC); assay type: cell-based; settings: Streptococcus pneumoniae, ATCC6303, read-out: Minimum inhibiting concentration
In short: as §1

[11] = system: Streptococcus pyogenes ATCC 8668 LRP 197; test: Bacteriostatic power in solid medium (MIC); assay type: cell-based; settings: Streptococcus pyogenes, ATCC8668, read-out: Minimum inhibiting concentration
In short: as §1

[12] = system: Micrococcus luteus ATCC 15957 LRP 193; test: Bacteriostatic power in solid medium (MIC); assay type: cell-based; settings: Micrococcus luteus, ATCC15957, read-out: Minimum inhibiting concentration
In short: as §1

[13] = system: Staphylococcus aureus ATCC 6538P LRP 14; test: Bacteriostatic power in solid medium (MIC); assay type: cell-based; settings: Staphylococcus aureus, ATCC6538P, read-out: Minimum inhibiting concentration
In short: as §1

[14] = system: Bacteroides fragilis ATCC 23745 LRP 205; test: Bacteriostatic power in solid medium (MIC); assay type: cell-based; settings: Bacteroides fragilis, ATCC23745, read-out: Minimum inhibiting concentration
In short: as §1

[15] = system: Streptococcus pyogenes ATCC 8668 LRP 34; test: Bacteriostatic power in solid medium (MIC); assay type: cell-based; settings: Streptococcus pyogenes, ATCC8668, read-out: Minimum inhibiting concentration
In short: as §1

[16] = system: Escherichia coli LRP 50; test: Bacteriostatic power in solid medium (MIC); assay type: cell-based; settings: Escherichia coli, LRP50, read-out: Minimum inhibiting concentration
In short: as §1

[17] = system: Haemophilus influenzae ATCC 19418 LRP 213; test: Bacteriostatic power in solid medium (MIC); assay type: cell-based; settings: Haemophilus influenzae, ATCC19418, read-out: Minimum inhibiting concentration
In short: as §1

[18] = system: Mycoplasma hominis I ATCC 14027 LRP 211; test: Bacteriostatic power in solid medium (MIC); assay type: cell-based; settings: Metamycoplasma hominis, ATCC14027, read-out: Minimum inhibiting concentration
In short: as §1

[19] = system: Bacillus subtilis LRP 25; test: Bacteriostatic power in solid medium (MIC); assay type: cell-based; settings: Bacillus subtilis, LRP25, read-out: Minimum inhibiting concentration
In short: as §1

[20] = system: Streptococcus faecalis subsp. zymogenes ATCC 12958 LRP 61; test: Bacteriostatic power in solid medium (MIC); assay type: cell-based; settings: Enterococcus faecalis, ATCC12958, read-out: Minimum inhibiting concentration
In short: as §1

[21] = system: Corynebacterium diphteriae LRP 24; test: Bacteriostatic power in solid medium (MIC); assay type: cell-based; settings: Corynebacterium, LRP24, read-out: Minimum inhibiting concentration
In short: as §1

[22] = system: Neisseria gonorrhoeae ATCC 19424 LRP 214; test: Bacteriostatic power in solid medium (MIC); assay type: cell-based; settings: Neisseria gonorrhoeae, ATCC19424, read-out: Minimum inhibiting concentration
In short: as §1

[23] = system: Streptococcus pneumoniae ATCC 6303 LRP 53; test: Bacteriostatic power in solid medium (MIC); assay type: cell-based; settings: Streptococcus pneumoniae, ATCC6303, read-out: Minimum inhibiting concentration
In short: as §1

[24] = system: Staphylococcus aureus ATCC 6538P LRP 39; test: Bacteriostatic power in solid medium (MIC); assay type: cell-based; settings: Staphylococcus aureus, ATCC6538P, read-out: Minimum inhibiting concentration
In short: as §1

[25] = system: Shigella sonnei LRP 5; test: Bacteriostatic power in solid medium (MIC); assay type: cell-based; settings: LRP5, read-out: Minimum inhibiting concentration
In short: as §1

[26] = system: Clostridium perfrigens ATCC 3624 LRP 206; test: microbe, parasite or virus in culture; assay type: cell-based; settings: ATCC3624, solid medium, anaerobic, read-out: Minimum inhibiting concentration
In short: as §1

[27] = system: Salmonella typhy LRP 8; test: microbe, parasite or virus in culture; assay type: cell-based; settings: LRP8, solid medium, read-out: Minimum inhibiting concentration
In short: as §1

[28] = system: Streptococcus faecalis subs. zymogenes ATCC 12958 LRP 61; test: Bacteriostatic power in liquid medium (MIC); assay type: cell-based; settings: Enterococcus faecalis, ATCC12958, read-out: Minimum inhibiting concentration
In short: as §1

[29] = system: Streptococcus pneumoniae ATCC 6303 LRP 35; test: Bacteriostatic power in liquid medium (MIC); assay type: cell-based; settings: Streptococcus pneumoniae, ATCC6303, read-out: Minimum inhibiting concentration
In short: as §1

[30] = system: Streptococcus pyogenes ATCC 8668 LRP 34; test: Bacteriostatic power in liquid medium (MIC); assay type: cell-based; settings: Streptococcus pyogenes, ATCC8668, read-out: Minimum inhibiting concentration
In short: as §1

[31] = system: Staphylococcus aureus ATCC 6538 P LRP 39; test: Bacteriostatic power in liquid medium (MIC); assay type: cell-based; settings: Staphylococcus aureus, ATCC6538, read-out: Minimum inhibiting concentration
In short: as §1

[32] = system: Corynebacterium diphteriae LRP 24; test: Bacteriostatic power in liquid medium (MIC); assay type: cell-based; settings: Corynebacterium, LRP24, read-out: Minimum inhibiting concentration
In short: as §1

[33] = system: Streptococcus pneumoniae ATCC 6303 LRP 35; test: Minimum bactericidal concentration (MBC); assay type: cell-based; settings: Streptococcus pneumoniae, ATCC6303, read-out: Minimum bactericidal concentration (MBC)
Source text: (§2) the bacterial power, expressed as the minimum bactericidal power (MBC) against some Gram positive aerobic stocks (table 5).

[34] = system: Streptococcus pyogenes ATCC 8668 LRP 34; test: Minimum bactericidal concentration (MBC); assay type: cell-based; settings: Streptococcus pyogenes, ATCC8668, read-out: Minimum bactericidal concentration (MBC)
Source text: as §2

[35] = system: Staphylococcus aureus ATCC 6538 P LRP 39; test: Minimum bactericidal concentration (MBC); assay type: cell-based; settings: Staphylococcus aureus, ATCC6538, read-out: Minimum bactericidal concentration (MBC)
Source text: as §2

[36] = system: Corynebacterium diphteriae LRP 24; test: Minimum bactericidal concentration (MBC); assay type: cell-based; settings: Corynebacterium, LRP24, read-out: Minimum bactericidal concentration (MBC)
Source text: as §2

[37] = system: Streptococcus faecalis subs. zymogenes LRP 61; test: Minimum bactericidal concentration (MBC); assay type: cell-based; settings: Enterococcus faecalis, read-out: Minimum bactericidal concentration (MBC)
Source text: as §2

[38] = Serum concentrations in the rat after oral administration; assay type: in vivo; settings: rat, in vivo, po, 100 mg/kg
Procedure: administration of 100 mg/kg per os. The values, at the
several sampling times, correspond to mcg of product per ml of serum*.

[39] = Stability in acidic environment at 25° C. (half-life of initial microbiological activity); assay type: physicochemical; settings: aqueous solution
Procedure: Stability in acidic environnment at 25° C. of the novel
Note: t 1/2 represents the time for reducing to one half the initial powe
of the antibiotic determined by microbiological method through diffusion
on a plate using the test stock Microccocus luteus (Sarcina lutea) ATCC

Which MIC [1] does the source give for `CC[C@H]1OC(=O)[C@H](C)[C@@H](O[C@H]2C[C@@](C)(OC)[C@@H](O)[C@H](C)O2)[C@H](C)[C@@H](O[C@@H]2O[C@H](C)C[C@H](N(C)C)[C@H]2O)[C@](C)(O)C[C@@H](C)C(=O)[C@H](C)[C@@H](O)[C@]1(C)O` [Erythromycin A, reference compound] here?
Its MIC is 25 µg/mL (≈ 34.1 µM).

And the MIC [2]?
Its MIC is 25 µg/mL (≈ 34.1 µM).

What about the MIC [3] of the same compound?
The MIC was 0.012 µg/mL (≈ 0.0164 µM).

What about the MIC [4] of the same compound?
The MIC was 0.097 µg/mL (≈ 0.132 µM).

And the MIC [5]?
Its MIC is 0.006 µg/mL (≈ 0.00818 µM).

What about the MIC [6] of the same compound?
Its MIC is 0.097 µg/mL (≈ 0.132 µM).

And the MIC [7]?
The MIC was 12.5 µg/mL (≈ 17 µM).

And the MIC [8]?
Its MIC is 25 µg/mL (≈ 34.1 µM).

What about the MIC [9] of the same compound?
Its MIC is 3.12 µg/mL (≈ 4.25 µM).

And the MIC [10]?
Its MIC is 0.012 µg/mL (≈ 0.0164 µM).

What about the MIC [11] of the same compound?
The MIC was 0.012 µg/mL (≈ 0.0164 µM).

And the MIC [12]?
The MIC was 25 µg/mL (≈ 34.1 µM).

And the MIC [13]?
The MIC was 0.049 µg/mL (≈ 0.0668 µM).

What about the MIC [14] of the same compound?
The MIC was 0.195 µg/mL (≈ 0.266 µM).

What about the MIC [15] of the same compound?
Its MIC is 0.012 µg/mL (≈ 0.0164 µM).

And the MIC [16]?
The MIC was 6.25 µg/mL (≈ 8.52 µM).

And the MIC [17]?
The MIC was 3.12 µg/mL (≈ 4.25 µM).

What about the MIC [18] of the same compound?
The MIC was 25 µg/mL (≈ 34.1 µM).

And the MIC [19]?
The MIC was 0.049 µg/mL (≈ 0.0668 µM).

And the MIC [20]?
The MIC was 0.097 µg/mL (≈ 0.132 µM).

And the MIC [21]?
The MIC was 0.006 µg/mL (≈ 0.00818 µM).

And the MIC [22]?
Its MIC is 0.049 µg/mL (≈ 0.0668 µM).

And the MIC [23]?
Its MIC is 0.012 µg/mL (≈ 0.0164 µM).

And the MIC [24]?
The MIC was 0.049 µg/mL (≈ 0.0668 µM).

What about the MIC [25] of the same compound?
The MIC was 12.5 µg/mL (≈ 17 µM).

And the MIC [26]?
Its MIC is 1.56 µg/mL (≈ 2.13 µM).

And the MIC [27]?
Its MIC is 12.5 µg/mL (≈ 17 µM).

What about the MIC [28] of the same compound?
Its MIC is 0.39 µg/mL (≈ 0.531 µM).

And the MIC [29]?
The MIC was 0.024 µg/mL (≈ 0.0327 µM).

What about the MIC [30] of the same compound?
Its MIC is 0.024 µg/mL (≈ 0.0327 µM).

What about the MIC [31] of the same compound?
Its MIC is 0.097 µg/mL (≈ 0.132 µM).

And the MIC [32]?
Its MIC is 0.012 µg/mL (≈ 0.0164 µM).

What about the MBC [33] of the same compound?
Its MBC is 0.097 µg/mL (≈ 0.132 µM).

And the MBC [34]?
The MBC was 0.39 µg/mL (≈ 0.531 µM).

What about the MBC [35] of the same compound?
Its MBC is 1.56 µg/mL (≈ 2.13 µM).

And the MBC [36]?
The MBC was 0.049 µg/mL (≈ 0.0668 µM).

What about the MBC [37] of the same compound?
Its MBC is 6.25 µg/mL (≈ 8.52 µM).

What about the concentration at 2 h ([38]; 100 mg/kg per os, 2 hours) of the same compound?
The concentration at 2 h was 1140 ng/mL.

And the concentration at 0.5 h ([38]; Serum concentration, average)?
Its concentration at 0.5 h is 478 ng/mL.

And the concentration at 1 h ([38]; Serum concentration, average)?
The concentration at 1 h was 534 ng/mL.

And the concentration at 4 h ([38]; Serum concentration, average)?
The concentration at 4 h was 262 ng/mL.

What about the concentration at 6 h ([38]; Serum concentration, average) of the same compound?
Its concentration at 6 h is 165 ng/mL.

And the half-life ([39]; pH 2)?
The half-life was 2 min.

What about the half-life ([39]; pH 3) of the same compound?
The half-life was 6 min.
